Calls of active or inactive are those of the source. The calls are words filed in the database; no cut-off is given here.
Assays:
Hordeum vulgare [1] = assay: Stimulation of root length of Hordeum vulgare (barley) at 0.1 mM after 5 days relative to untreated control; type: functional
Triticum aestivum [2] = assay: Stimulation of shoot length of Triticum aestivum (wheat) at 0.1 mM after 5 days relative to untreated control; type: functional
Hordeum vulgare [3] = assay: Stimulation of germination of Hordeum vulgare (barley) at 0.1 mM after 5 days relative to untreated control; type: functional
Triticum aestivum [4] = assay: Stimulation of root length of Triticum aestivum (wheat) at 0.1 mM after 5 days relative to untreated control; type: functional
Triticum aestivum [5] = assay: Stimulation of germination of Triticum aestivum (wheat) at 0.1 mM after 5 days relative to untreated control; type: functional
Allium cepa [6] = assay: Stimulation of root length of Allium cepa (onion) at 0.1 mM after 5 days relative to untreated control; type: functional
Allium cepa [7] = assay: Stimulation of shoot length of Allium cepa (onion) at 0.1 mM after 5 days relative to untreated control; type: functional
Allium cepa [8] = assay: Stimulation of germination of Allium cepa (onion) at 0.1 mM after 5 days relative to untreated control; type: functional
Solanum lycopersicum [9] = assay: Stimulation of shoot length of Solanum lycopersicum (tomato) at 0.1 mM after 5 days relative to untreated control; type: functional
Solanum lycopersicum [10] = assay: Stimulation of root length of Solanum lycopersicum (tomato) at 0.1 mM after 5 days relative to untreated control; type: functional
Solanum lycopersicum [11] = assay: Stimulation of germination of Solanum lycopersicum (tomato) at 0.1 mM after 5 days relative to untreated control; type: functional
Lepidium sativum [12] = assay: Stimulation of shoot length of Lepidium sativum at 0.1 mM after 5 days relative to untreated control; type: functional
Lepidium sativum [13] = assay: Stimulation of root length of Lepidium sativum at 0.1 mM after 5 days relative to untreated control; type: functional
Lactuca sativa [14] = assay: Stimulation of shoot length of Lactuca sativa cv. Roman (lettuce) at 0.1 mM after 5 days relative to untreated control; type: functional
Lepidium sativum [15] = assay: Stimulation of germination of Lepidium sativum at 0.1 mM after 5 days relative to untreated control; type: functional
Lactuca sativa [16] = assay: Stimulation of root length of Lactuca sativa cv. Roman (lettuce) at 0.1 mM after 5 days relative to untreated control; type: functional
Lactuca sativa [17] = assay: Stimulation of germination of Lactuca sativa cv. Roman (lettuce) at 0.1 mM after 5 days relative to untreated control; type: functional
Lactuca sativa [18] = assay: Stimulation of shoot length of Lactuca sativa cv. Nigra (lettuce) at 0.1 mM after 5 days relative to untreated control; type: functional
Lactuca sativa [19] = assay: Stimulation of root length of Lactuca sativa cv. Nigra (lettuce) at 0.1 mM after 5 days relative to untreated control; type: functional
Lactuca sativa [20] = assay: Stimulation of germination of Lactuca sativa cv. Nigra (lettuce) at 0.1 mM after 5 days relative to untreated control; type: functional
Triticum aestivum [21] = assay: Inhibition of shoot length of Triticum aestivum (wheat) at 0.1 mM after 5 days relative to untreated control; type: functional; conditions: for inhibition at 100 µM: 120 h
Hordeum vulgare [22] = assay: Inhibition of germination of Hordeum vulgare (barley) at 0.1 mM after 5 days relative to untreated control; type: functional; conditions: 120 h
Hordeum vulgare [23] = assay: Inhibition of root length of Hordeum vulgare (barley) at 0.1 mM after 5 days relative to untreated control; type: functional; conditions: 120 h
Hordeum vulgare [24] = assay: Stimulation of shoot length of Hordeum vulgare (barley) at 0.1 mM after 5 days relative to untreated control; type: functional
Lactuca sativa [25] = assay: Inhibition of germination of Lactuca sativa cv. Nigra (lettuce) at 0.1 mM after 5 days relative to untreated control; type: functional; conditions: for inhibition at 100 µM: 120 h
Lactuca sativa [26] = assay: Inhibition of root length of Lactuca sativa cv. Nigra (lettuce) at 0.1 mM after 5 days relative to untreated control; type: functional; conditions: 120 h
Lactuca sativa [27] = assay: Inhibition of shoot length of Lactuca sativa cv. Nigra (lettuce) at 0.1 mM after 5 days relative to untreated control; type: functional; conditions: 120 h
Solanum lycopersicum [28] = assay: Inhibition of shoot length of Solanum lycopersicum (tomato) at 10 uM after 5 days relative to untreated control; type: functional, organism-based
Lactuca sativa [29] = assay: Inhibition of germination of Lactuca sativa cv. Roman (lettuce) at 0.1 mM after 5 days relative to untreated control; type: functional; conditions: 120 h
Lactuca sativa [30] = assay: Inhibition of root length of Lactuca sativa cv. Roman (lettuce) at 0.1 mM after 5 days relative to untreated control; type: functional; conditions: 120 h
Lactuca sativa [31] = assay: Inhibition of shoot length of Lactuca sativa cv. Roman (lettuce) at 0.1 mM after 5 days relative to untreated control; type: functional; conditions: 120 h
Lepidium sativum [32] = assay: Inhibition of germination of Lepidium sativum at 0.1 mM after 5 days relative to untreated control; type: functional
Lepidium sativum [33] = assay: Inhibition of root length of Lepidium sativum at 0.1 mM after 5 days relative to untreated control; type: functional; conditions: for inhibition at 100 µM: 120 h
Lepidium sativum [34] = assay: Inhibition of shoot length of Lepidium sativum at 0.1 mM after 5 days relative to untreated control; type: functional; conditions: 120 h
Solanum lycopersicum [35] = assay: Inhibition of germination of Solanum lycopersicum (tomato) at 0.1 mM after 5 days relative to untreated control; type: functional; conditions: 120 h
Solanum lycopersicum [36] = assay: Inhibition of root length of Solanum lycopersicum (tomato) at 0.1 mM after 5 days relative to untreated control; type: functional; conditions: 120 h
Solanum lycopersicum [37] = assay: Inhibition of shoot length of Solanum lycopersicum (tomato) at 0.1 mM after 5 days relative to untreated control; type: functional; conditions: 120 h
Allium cepa [38] = assay: Inhibition of germination of Allium cepa (onion) at 0.1 mM after 5 days relative to untreated control; type: functional; conditions: 120 h
Allium cepa [39] = assay: Inhibition of root length of Allium cepa (onion) at 0.1 mM after 5 days relative to untreated control; type: functional; conditions: for inhibition at 100 µM: 120 h
Allium cepa [40] = assay: Inhibition of shoot length of Allium cepa (onion) at 0.1 mM after 5 days relative to untreated control; type: functional; conditions: 120 h
Triticum aestivum [41] = assay: Inhibition of germination of Triticum aestivum (wheat) at 0.1 mM after 5 days relative to untreated control; type: functional; conditions: for inhibition at 100 µM: 120 h
Triticum aestivum [42] = assay: Inhibition of root length of Triticum aestivum (wheat) at 0.1 mM after 5 days relative to untreated control; type: functional; conditions: for inhibition at 100 µM: 120 h
Solanum lycopersicum [43] = assay: Inhibition of root length of Solanum lycopersicum (tomato) at 10 uM after 5 days relative to untreated control; type: functional, organism-based
Solanum lycopersicum [44] = assay: Inhibition of germination of Solanum lycopersicum (tomato) at 10 uM after 5 days relative to untreated control; type: functional, organism-based
Lepidium sativum [45] = assay: Inhibition of shoot length of Lepidium sativum at 10 uM after 5 days relative to untreated control; type: functional, organism-based
Lepidium sativum [46] = assay: Inhibition of root length of Lepidium sativum at 10 uM after 5 days relative to untreated control; type: functional, organism-based
Lepidium sativum [47] = assay: Inhibition of germination of Lepidium sativum at 10 uM after 5 days relative to untreated control; type: functional, organism-based
Hordeum vulgare [48] = assay: Inhibition of shoot length of Hordeum vulgare (barley) at 0.1 mM after 5 days relative to untreated control; type: functional; conditions: for inhibition at 100 µM: 120 h

C[C@@]12CCC[C@]3(C)C4=CC(=O)OCC4=C[C@@H](OC1=O)[C@@H]23
Activity (Hordeum vulgare [1]): >40%
Activity (Triticum aestivum [2]): <20%
Activity (Hordeum vulgare [3]): 20%
Activity (Triticum aestivum [4]): 20%
Activity (Triticum aestivum [5]): inactive
Activity (Allium cepa [6]): >40%
Activity (Allium cepa [7]): >40%
Activity (Allium cepa [8]): 20%
Activity (Solanum lycopersicum [9]): >40%
Activity (Solanum lycopersicum [10]): >40%
Activity (Solanum lycopersicum [11]): >40%
Activity (Lepidium sativum [12]): >40%
Activity (Lepidium sativum [13]): >40%
Activity (Lactuca sativa [14]): >40%
Activity (Lepidium sativum [15]): >40%
Activity (Lactuca sativa [16]): >40%
Activity (Lactuca sativa [17]): 20%
Activity (Lactuca sativa [18]): >40%
Activity (Lactuca sativa [19]): >40%
Activity (Lactuca sativa [20]): inactive
inhibition at 100 µM (Triticum aestivum [21]): < 20%
inhibition at 100 µM (Hordeum vulgare [22]): 20%
inhibition at 100 µM (Hordeum vulgare [23]): > 40%
Activity (Hordeum vulgare [24]): >40%
inhibition (Lactuca sativa [25]): inactive
inhibition at 100 µM (Lactuca sativa [26]): > 40%
inhibition at 100 µM (Lactuca sativa [27]): > 40%
inhibition (Solanum lycopersicum [28]): Active
inhibition at 100 µM (Lactuca sativa [29]): 20%
inhibition at 100 µM (Lactuca sativa [30]): > 40%
inhibition at 100 µM (Lactuca sativa [31]): > 40%
inhibition at 100 µM (Lepidium sativum [32]; 120 h): > 40%
inhibition at 100 µM (Lepidium sativum [33]): > 40%
inhibition at 100 µM (Lepidium sativum [34]): > 40%
inhibition at 100 µM (Solanum lycopersicum [35]): > 40%
inhibition at 100 µM (Solanum lycopersicum [36]): > 40%
inhibition at 100 µM (Solanum lycopersicum [37]): > 40%
inhibition at 100 µM (Allium cepa [38]): 20%
inhibition at 100 µM (Allium cepa [39]): > 40%
inhibition at 100 µM (Allium cepa [40]): > 40%
inhibition (Triticum aestivum [41]): inactive
inhibition at 100 µM (Triticum aestivum [42]): 20%
inhibition (Solanum lycopersicum [43]): Active
inhibition (Solanum lycopersicum [44]): Active
inhibition (Lepidium sativum [45]): Active
inhibition (Lepidium sativum [46]): Active
inhibition (Lepidium sativum [47]): Active
inhibition at 100 µM (Hordeum vulgare [48]): > 40%

COC(=O)[C@@]1(C)CCC[C@@]2(C)[C@H]1CC=C1COC(=O)C[C@@H]12
Activity (Hordeum vulgare [1]): 20%
Activity (Triticum aestivum [2]): inactive
Activity (Hordeum vulgare [3]): >40%
Activity (Triticum aestivum [4]): inactive
Activity (Triticum aestivum [5]): <20%
Activity (Allium cepa [6]): inactive
Activity (Allium cepa [7]): <20%
Activity (Allium cepa [8]): 20%
Activity (Solanum lycopersicum [9]): 20%
Activity (Solanum lycopersicum [10]): >40%
Activity (Solanum lycopersicum [11]): <20%
Activity (Lepidium sativum [12]): <20%
Activity (Lepidium sativum [13]): inactive
Activity (Lactuca sativa [14]): <20%
Activity (Lepidium sativum [15]): inactive
Activity (Lactuca sativa [16]): <20%
Activity (Lactuca sativa [17]): <20%
Activity (Lactuca sativa [18]): <20%
Activity (Lactuca sativa [19]): <20%
Activity (Lactuca sativa [20]): <20%
inhibition (Triticum aestivum [21]): inactive
inhibition at 100 µM (Hordeum vulgare [22]): > 40%
inhibition at 100 µM (Hordeum vulgare [23]): 20%
Activity (Hordeum vulgare [24]): inactive
inhibition at 100 µM (Lactuca sativa [25]): < 20%
inhibition at 100 µM (Lactuca sativa [26]): < 20%
inhibition at 100 µM (Lactuca sativa [27]): < 20%
inhibition at 100 µM (Lactuca sativa [29]): < 20%
inhibition at 100 µM (Lactuca sativa [30]): < 20%
inhibition at 100 µM (Lactuca sativa [31]): < 20%
inhibition (Lepidium sativum [32]): inactive
inhibition (Lepidium sativum [33]): inactive
inhibition at 100 µM (Lepidium sativum [34]): < 20%
inhibition at 100 µM (Solanum lycopersicum [35]): < 20%
inhibition at 100 µM (Solanum lycopersicum [36]): > 40%
inhibition at 100 µM (Solanum lycopersicum [37]): 20%
inhibition at 100 µM (Allium cepa [38]): 20%
inhibition (Allium cepa [39]): inactive
inhibition at 100 µM (Allium cepa [40]): < 20%
inhibition at 100 µM (Triticum aestivum [41]): < 20%
inhibition (Triticum aestivum [42]): inactive
inhibition (Hordeum vulgare [48]): inactive

COc1nc(C)nc(NC(=O)NS(=O)(=O)c2ccccc2OCCCl)n1 [LOGRAN]
Activity (Hordeum vulgare [1]): >40%
Activity (Triticum aestivum [2]): 20%
Activity (Hordeum vulgare [3]): >40%
Activity (Triticum aestivum [4]): 20%
Activity (Triticum aestivum [5]): >40%
Activity (Allium cepa [6]): >40%
Activity (Allium cepa [7]): >40%
Activity (Allium cepa [8]): 20%
Activity (Solanum lycopersicum [9]): >40%
Activity (Solanum lycopersicum [10]): >40%
Activity (Solanum lycopersicum [11]): 20%
Activity (Lepidium sativum [12]): <20%
Activity (Lepidium sativum [13]): >40%
Activity (Lactuca sativa [14]): >40%
Activity (Lepidium sativum [15]): inactive
Activity (Lactuca sativa [16]): >40%
Activity (Lactuca sativa [17]): >40%
Activity (Lactuca sativa [18]): >40%
Activity (Lactuca sativa [19]): >40%
Activity (Lactuca sativa [20]): >40%
inhibition at 100 µM (Triticum aestivum [21]): 20%
inhibition at 100 µM (Hordeum vulgare [22]): > 40%
inhibition at 100 µM (Hordeum vulgare [23]): > 40%
Activity (Hordeum vulgare [24]): 20%
inhibition at 100 µM (Lactuca sativa [25]): > 40%
inhibition at 100 µM (Lactuca sativa [26]): > 40%
inhibition at 100 µM (Lactuca sativa [27]): > 40%
inhibition at 100 µM (Lactuca sativa [29]): > 40%
inhibition at 100 µM (Lactuca sativa [30]): > 40%
inhibition at 100 µM (Lactuca sativa [31]): > 40%
inhibition (Lepidium sativum [32]): inactive
inhibition at 100 µM (Lepidium sativum [33]): > 40%
inhibition at 100 µM (Lepidium sativum [34]): < 20%
inhibition at 100 µM (Solanum lycopersicum [35]): 20%
inhibition at 100 µM (Solanum lycopersicum [36]): > 40%
inhibition at 100 µM (Solanum lycopersicum [37]): > 40%
inhibition at 100 µM (Allium cepa [38]): 20%
inhibition at 100 µM (Allium cepa [39]): > 40%
inhibition at 100 µM (Allium cepa [40]): > 40%
inhibition at 100 µM (Triticum aestivum [41]): > 40%
inhibition at 100 µM (Triticum aestivum [42]): 20%
inhibition at 100 µM (Hordeum vulgare [48]): 20%
